Source: US7989466B2, “Methods to inhibit or augment an inflammatory response” (Cambridge Enterprise Limited, priority 1999, dated 2011)
Read-outs that look alike come from different tables or passages of the source. Marks after values point to notes of the source that are not given here. Each block holds one molecule with its values, some of them ahead of it. Positions of bridges follow the written chain, without caps; N, C: chain ends. Non-standard residues stand in square brackets, D forms with d. Residues, ends and D or L forms follow the SMILES beside them. No end group written: not given here.

Key:
[1] = tested on: MCP-1 induced THP-1 migration; test: THP-1 trans-well migration assay, MCP-1 as chemoattractant; assay type: cell-based, human; conditions: for % inhibition at 100 μM versus MCP-1, THP-1 migration: agent with the cells, n.s. = no statistically significant inhibition
Procedure, shortened: (§1)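 5×10^4 THP-1 cells with serially diluted peptide in upper chamber, 5 µm filter, recombinant human chemokine 50 ng/ml (5.9 nM) in lower chamber. Incubated 4 h at 37 °C. Migrated cells counted by MTT staining, A595 read against a THP-1 standard curve.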

[2] = tested on: MIP1α induced THP-1 migration; test: THP-1 trans-well migration assay, MIP1α as chemoattractant; assay type: cell-based, human; conditions: for % inhibition at 100 μM versus MIP1α, THP-1 migration: n.s. = no statistically significant inhibition
Procedure, shortened: as §1

[3] = tested on: chemokine-induced THP-1 migration; test: THP-1 trans-well migration assay, panel of chemokines (MCP-1, MIP1α, IL-8, SDF1α); assay type: cell-based, human; conditions: for effect on THP-1 migration induced by the chemokine panel, in words: IL-8, SDF1α; for CC SPECIFICITY: average inhibitory ED50 versus SDF1 and IL8 divided by average inhibitory ED50 versus MCP-1 and MIP1α
THP-1 cells = test: Agonist activity: agent in the lower compartment of the THP-1 migration chamber; conditions: agent in place of chemokine
[4] = tested on: IL8 induced THP-1 migration; test: THP-1 trans-well migration assay, IL-8 as chemoattractant; assay type: cell-based, human; conditions: for % inhibition at 100 μM versus IL8, THP-1 migration: n.s. = no statistically significant inhibition
Procedure: To determine whether an agent inhibits a chemokine-induced activity, such as macrophage recruitment, varying amounts of the agent are mixed with cells in the presence of a known chemoattractant. For example, a range of known concentrations of an agent, e.g., a chemokine peptide, is incubated with a defined number (e.g., 10^4-10^6) of human THP-1 monocyte cells in individual wells of the top compartment of a trans-well plate. Chemokine (such as MCP-1, MIP1α, IL8 or SDF-1α), at a concentration known to cause significant migration of THP-1 cells in the trans-well migration assay, is placed in the lower compartment (FIG. 1). Cells are then incubated at 37° C. for a period sufficient to allow migration, e.g., 4 hours. After incubation, the cells are gently removed from the top of the filter with a pipette, 20 μl of 20 mM EDTA in simple PBS is added into each top well, and incubated for 20 minutes at 4° C. The filter is carefully flushed with media using a gentle flow, and removed. A standard curve consisting of a two-fold dilution series of THP-1 cells (in 29 μl) is prepared to accurately quantify the number of cells that have migrated. Migrated cells are stained with 3 μl of MTT stock dye solution which is added directly into each well (5 mg/ml in RPMI-1640 without phenol red, Sigma Chemical Co.) and incubated at 37° C. for 4 hours. The media is carefully aspirated from each well, and the converted dye is solubilized by 20 μl of DMSO. Absorbance of converted dye is measured at a wavelength of 595 nm using an ELISA plate reader. The number of migrated cells in each well is then determined by interpolation of the standard curve (see also Imai et al., J. Biol. Chem., 272, 15036 (1997)).
For this assay, THP-1 cells were maintained at a density of 4×10^5 cells per ml in RPMI-1640 supplemented with 10% fetal calf serum+20 μM 2-mercaptoethanol. Chemotaxis was induced in a 96-well disposable chemotaxis chamber fitted with a […] polycarbonate filter (PVP free, ChemoTX, Neuroprobe Inc., Cabin John). Twenty-nine μl of chemoattractant (recombinant human chemokine; 50 ng/ml, i.e., 5.9 nM) or control (100 ng/ml TGFβ) was added to the lower compartment of each well. The framed filter was aligned with the holes in the corner of the filter frame and placed over the wells. Five×10^4 THP-1 cells in 25 μl of RPMI-1640 were added to the upper compartment. Peptides were dissolved in Milli Q water and then serially diluted in culture medium. In most cases, the serially diluted peptides were added to the upper compartment of the chemotaxis chamber. The chamber was incubated at 37° C. in a humidified atmosphere of 5% CO2 for 4 hours.
After incubation, the cells were gently removed from the top of the filter with a pipette, 20 μl of 20 mM EDTA in PBS was added into each top well, and the mixture was incubated for 20 minutes at 4° C. The filter was then carefully flushed with media using a gentle flow, and removed. A standard curve was prepared to accurately quantify the number of THP-1 cells that had migrated. The curve was based on a two-fold dilution series of THP-1 cells (top standard 100,000 cells in 29 μl). Cells which had migrated, and in separate wells, the cells in the standards, were stained with 3 μl of MTT stock solution which was added directly into each well (5 mg/ml in RPMI 1640 without phenol red, Sigma Chemical Co.) and incubated at 37° C. for 4 hours. The media was carefully aspirated from each well, and the converted dye was solubilized by 20 μl of DMSO. Absorbance of converted dye was measured at a wavelength of 595 nm using an ELISA plate reader. The number of cells that had migrated in each well was determined by interpolation of the standard curve.

[5] = tested on: SDF-1α induced THP-1 migration; test: THP-1 trans-well migration assay, SDF-1α as chemoattractant; assay type: cell-based, human; conditions: for % inhibition at 100 μM versus SDF-1α, THP-1 migration: n.s. = no statistically significant inhibition
Procedure, shortened: as §1

[6] = tested on: TGFβ1 induced THP-1 migration; test: THP-1 trans-well migration assay, TGFβ1 as non-chemokine control; assay type: cell-based, human; conditions: for ED50 versus TGFβ1, inhibition of THP-1 migration: n.s. = no statistically significant inhibition (p > 0.05); for % inhibition at 100 μM versus TGFβ1, THP-1 migration: n.s. = no statistically significant inhibition
Procedure: Any method suitable for counting cells can be used, for example, counting with a hemocytometer, incubation of the cells with MTT (see above), or FACS analysis. A negative control assay is also performed, using TGF-β or another non-chemokine chemoattractant (e.g., IL1β or TNFα). To assess whether the agent is cytotoxic, the same concentrations of agent are incubated with THP-1 cells. Agents which 1) are not cytotoxic at levels which inhibit migration, 2) are ineffective at inhibiting the negative control-induced migration, and 3) reduce or inhibit chemokine-induced THP-1 migration, are agents which fall within the scope of the invention.
Chemotaxis was induced in a 96-well disposable chemotaxis chamber fitted with a […] polycarbonate filter (PVP free, ChemoTX, Neuroprobe Inc., Cabin John). […] The framed filter was aligned with the holes in the corner of the filter frame and placed over the wells. […] Peptides were dissolved in Milli Q water and then serially diluted in culture medium. In most cases, the serially diluted peptides were added to the upper compartment of the chemotaxis chamber. The chamber was incubated at 37° C. in a humidified atmosphere of 5% CO2 for 4 hours.
After incubation, the cells were gently removed from the top of the filter with a pipette, 20 μl of 20 mM EDTA in PBS was added into each top well, and the mixture was incubated for 20 minutes at 4° C. The filter was then carefully flushed with media using a gentle flow, and removed. […] The curve was based on a two-fold dilution series of THP-1 cells (top standard 100,000 cells in 29 μl). […] The media was carefully aspirated from each well, and the converted dye was solubilized by 20 μl of DMSO.

[7] = n.s. = no statistically significant inhibition (p > 0.05)
[8] = ns = not significantly different from control

Molecule: CC[C@@H](C)[C@H]1NC(=O)[C@@H](CCC(N)=O)NC(=O)[C@H](N)CSSC[C@H](C(N)=O)NC(=O)[C@@H](CC(C)C)NC(=O)[C@@H](CC(=O)O)NC(=O)[C@H]2CCCN2C(=O)[C@@H](CCCCN)NC(=O)[C@@H](CCC(N)=O)NC(=O)[C@@H](CCCCN)NC(=O)[C@@H](Cc2c[nH]c3ccccc23)NC1=O (H-[dC][dQ][dI][dW][dK][dQ][dK][dP][dD][dL][dC]-NH2; disulfide 1-11; N-terminus assumed)
- IC50 ([1]; read-out: MCP-1 inhibitory activity in the THP-1 transwell assay): 0.005 to 0.1 µM
- shift of the MIP-1α dose response curve to higher concentrations ([2]; sub-maximal dose of inhibitor in the upper chamber): 5-100 fold
- effect on THP-1 migration induced by the chemokine panel, in words ([3]; MCP-1, MIP1α): inhibited THP-1 cell migration induced by MCP-1, MIP1α, IL-8, and SDF1, with very similar ED50s
- serum TNF-α in LPS treated mice, in words (LPS-induced serum TNF-α; i.v. loading dose and s.c. bolus 30 minutes before 583 μg LPS i.p.): dose dependent decrease
- agonist activity (THP-1 cells): No agonist activity was detected in the concentration range where inhibitory effects on chemokine-induced migration are seen (<1 μM)

Molecule: C=CCCCCCCCCC(=O)N[C@H]1CCC(=O)NC1=O [A-I (NR58.4), [3S]-3-(undec-10-enoylamino)piperidine-2,6-dione]
- EC50 ([1]; listed as NR58.4 (A-I), read-out: ED50 versus MCP-1 induced chemotaxis of THP-1): 0.002 µM
- EC50 ([2]; Homo sapiens, THP-1, read-out: ED50, MIP1α chemotaxis assay): 0.0002 µM
- EC50 ([4]; Homo sapiens, THP-1, read-out: ED50, IL-8 chemotaxis assay): < 0.01 µM
- EC50 ([5]; Homo sapiens, THP-1, read-out: ED50, SDF1α chemotaxis assay): 0.008 µM
- local tolerance at the site of injection (LPS-induced serum TNF-α; mouse, in vivo, sc): irritation was noted at the site of injection

- EC50 ([3]; footnote f, KQK MCP-1, SEE MIP1α, KLK SDF1, KEN IL8, read-out: ED50 of a tripeptide against the one chemokine it is highly specific for): 6 µM
Molecule: NCCCC[C@H](NC(=O)[C@H](CCC(N)=O)NC(=O)[C@@H](N)CCCCN)C(=O)O [KQK]
- percentage inhibition of migration induced by MCP-1 ([1]; tripeptide at 100 μM, mean ± range of two experiments, dash = no statistically significant reduction in migration): 95 ± 8^b %
- ED50 versus MIP1α, inhibition of THP-1 migration [2, 7]: n.s.
- ED50 versus IL8, inhibition of THP-1 migration [4, 7]: n.s.
- ED50 versus SDF-1α, inhibition of THP-1 migration [5, 7]: n.s.
- percentage inhibition of migration induced by SDF1α ([5]; tripeptide at 100 μM, mean ± range, dash = no statistically significant reduction in migration): 29 ± 1%
- ED50 versus TGFβ1, inhibition of THP-1 migration [6]: n.s.
- specificity for the cognate chemokine over all the other chemokines tested ([3]; KQK MCP-1, SEE MIP1-α): more than 100 fold
- Chemokine antagonist ([3]; active against at least one of IL-8, SDF-1α, MCP-1, MIP1α): +++++
- CC SPECIFICITY [3]: >100

Molecule: EICADPKQKWVQ [peptide 3(1-12)[MCP-1]]
- % inhibition at 100 μM versus MCP-1, THP-1 migration ([1]; 100 μM): > 99%
- % inhibition at 100 μM versus MCP-1, THP-1 migration ([1]; 100 μM, listed as Peptide 3 (SEQ ID NO: 1)): 112%
- % inhibition of MCP-1 induced migration at 100 μM, peptide with the chemokine in the lower compartment ([1]; 100 μM, lower compartment): 17%
- EC50 ([1]; agent with the cells in the upper compartment, n.s. = no statistically significant inhibition (p > 0.05), read-out: ED50 versus MCP-1, inhibition of THP-1 migration): 8 ± 1 µM
- % inhibition at 100 μM versus MIP1α, THP-1 migration [2]: 99%
- EC50 ([2]; n.s. = no statistically significant inhibition (p > 0.05), read-out: ED50 versus MIP1α, inhibition of THP-1 migration): 8 ± 1 µM
- % inhibition at 100 μM versus IL8, THP-1 migration [4]: 103%
- EC50 ([4]; n.s. = no statistically significant inhibition (p > 0.05), read-out: ED50 versus IL8, inhibition of THP-1 migration): 14 ± 1 µM
- % inhibition at 100 μM versus SDF-1α, THP-1 migration [5]: 107%
- EC50 ([5]; n.s. = no statistically significant inhibition (p > 0.05), read-out: ED50 versus SDF-1α, inhibition of THP-1 migration): 10 µM
- % inhibition at 100 μM versus TGFβ1, THP-1 migration [6]: n.s.
- ED50 versus TGFβ1, inhibition of THP-1 migration [6]: n.s.
- % inhibition at 100 μM of migration induced by any of the chemokines tested ([3]; 100 μM, THP-1): > 99%
- EC50 ([3]; average inhibitory ED50 for inhibition of THP-1 migration induced by each of the chemokines, read-out: AVERAGE ED50): 10 µM
- CC SPECIFICITY [3]: 1.5
- selectivity ratio (CC versus CXC chemokines) ([3]; greater than 1 = greater inhibition of CC chemokines relative to CXC chemokines): 1.5

Molecule: SYRRITSSKCPKEAV [peptide 2(1-15)[MCP-1]]
- % inhibition at 100 μM versus MCP-1, THP-1 migration ([1]; 100 μM, listed as Peptide 2 (SEQ ID NO: 3)): n.s.
- % inhibition at 100 μM versus MCP-1, THP-1 migration ([1]; 100 μM, listed as Peptide 2[MCP-1]): 19%
- ED50 versus MCP-1, inhibition of THP-1 migration ([1]; agent with the cells in the upper compartment, n.s. = no statistically significant inhibition (p > 0.05)): n.s.
- MCP-1 ED-50 [1, 8]: ns
- % inhibition at 100 μM versus MIP1α, THP-1 migration [2]: n.s.
- ED50 versus MIP1α, inhibition of THP-1 migration [2, 7]: n.s.
- MIPIa ED-50 [2, 8]: ns
- % inhibition at 100 μM versus IL8, THP-1 migration [4]: n.s.
- ED50 versus IL8, inhibition of THP-1 migration [4, 7]: n.s.
- % inhibition at 100 μM versus SDF-1α, THP-1 migration [5]: n.s.
- ED50 versus SDF-1α, inhibition of THP-1 migration [5, 7]: n.s.
- SDF1a ED-50 [5, 8]: ns
- % inhibition at 100 μM versus TGFβ1, THP-1 migration [6]: n.s.
- ED50 versus TGFβ1, inhibition of THP-1 migration [6]: n.s.
- effect on THP-1 migration induced by the chemokine panel, in words ([3]; MCP-1, MIP1α): no significant effect
- agonist activity (THP-1 cells): weak agonist properties
